Test [1] concerns the target KIT cytoplasmic domain (GST fused protein) (Homo sapiens (Human), UniProt P10721). The experiment in a line: Biochemical assay for inhibitors of KIT kinase activity. The conditions noted are these: 4 nM pre activated enzyme, 4.4 microM ATP, 60 minutes at r.t. The procedure:
KIT cytoplasmic domain (aa 544-976end of the 976 aminoacid long full length sequence, accession number P10721 of UniProtKB/Swiss-Prot database) was cloned into pVL vector for expression in insect cells through the baculovirus system. The GST-KIT cytoplasmic domain has been expressed in Sf21 cells infected for 66 hrs at 27° C. The recombinant protein has been purified by affinity on GSH-sepharose and eluted with glutathione. […] General Principle-A specific peptidic substrate was trans-phosphorylated by the kinase in the presence of ATP traced with 33Pγ-ATP. At the end of the phosphorylation reaction, the not reacted ATP, cold and radioactive, was captured by an excess of dowex ion exchange resin that eventually settled by gravity to the bottom of the reaction plate. The supernatant was subsequently withdrawn and transferred into a counting plate that was then evaluated by β-counting. • ii. Dowex resin preparation-500 g of wet resin (SIGMA, custom prepared resin DOWEX 1×8 200-400 mesh, 2.5 Kg) were weighed out and diluted to 2 L in 150 mM sodium formate, pH 3.00. The resin was allowed to settle down overnight and then the supernatant was discarded. After three washes as above over a couple of days, the resin was allowed to settle and two volumes (with respect to the resin volume) were added of 150 mM sodium formate buffer. Biochemical Assay for Inhibitors of FLT3 Kinase Activity • i. Enzyme-The assay was performed using FLT3 cytoplasmic domain product and purified in house as GST fused protein. […] The peptide was purchased from American Peptide Company (Sunnyvale, Calif.). Biochemical Assay for Inhibitors of KIT Kinase Activity • i. Enzyme-The assay has been performed using KIT cytoplasmic domain product and purified in house as GST fused protein. […] NO: 2). The peptide was purchased from American Peptide Company (Sunnyvale, Calif.). Compound Testing • i. […] An automated station for serial dilutions (Biomek FX, Beckman) was used for producing 1:3 dilutions in 100% DMSO, from line A1 to A10, and for all the compounds in the column. […] The following dispensation into the plates plus 3 cycles of mixing, done by the robot itself, started the kinase reaction. At this point, the correct concentrations were restored for all the reagents. The robot incubated the plates for 60 minutes at r.t., and then stopped the reaction by pipetting 60 microL of dowex resin suspension into the reaction mix. In order to avoid tip clogging, wide bore tips were used to dispense the resin suspension. Three cycles of mixing were done immediately after the addition of the resin. Another mixing cycle was performed after all the plates were stopped, this time using normal tips: the plates were then allowed to rest for about one hour in order to allow resin sedimentation. […] Data Fitting-Data were analyzed by an internally customized version of the SW package “Assay Explorer” that provided sigmoidal fitting of the ten-dilutions curves for IC50 determination in the secondary assays/hit confirmation routines. Cell-Based Assays for Inhibitors of FLT3 Kinase Activity In vitro Cell Proliferation Assay for Inhibitors of FLT3 Kinase Activity

In test [2] the test system is MV-4-11 cells, bearing a FLT3-ITD mutation. The experiment in a line: In vitro cell proliferation assay (CellTiter-Glo), MV-4-11. The following applies: Homo sapiens, MV4-11, MV-4-11, 72 h. It counts as cell-based. The procedure:
(§1) The human acute leukemia MOLM-13 AND MV-4-11 cells, bearing a FLT3-ITD mutation, were seeded (5000 cells/well) in white 384 well-plates in complete medium (RPMI 1640 plus 10% Fetal bovine serum) and treated with compounds dissolved in 0.1% DMSO, 24 h after seeding. The cells were incubated at 37° C. and 5% CO2 and after 72 h the plates were processed using CellTiter-Glo assay (Promega) following the manufacturer's instruction.
(§2) CellTiter-Glo is a homogenous method based on the quantification of the ATP present, an indicator of metabolitically active cells. ATP was quantified using a system based on luciferase and D-luciferin resultant into light generation. The luminescent signal was proportional to the number of cells present in culture.
(§3) Briefly, 25 microL/well reagent solution were added to each well and, after 5 minutes shaking, microplates were read by Envision (PerkinElmer) luminometer. Inhibitory activity was evaluated comparing treated versus control data using Symyx Assay Explorer (Symyx Technologies Inc.) program. IC50 was calculated using sigmoidal interpolation curve.
For orientation: Cellular ATP, detected with luciferase, serves as a proxy for viable cell number.

Test [3] addresses FLT3 cytoplasmic domain (GST fused protein) (Homo sapiens (Human), UniProt P36888). The experiment in a line: Biochemical assay for inhibitors of FLT3 kinase activity. The conditions noted are these: 2 nM pre activated enzyme, 254 microM ATP, 60 minutes at r.t. The procedure: FLT3 cytoplasmic domain (aa 564-993end of the 993 aminoacid long full length sequence, accession number P36888 of UniProtKB/Swiss-Prot. database) was amplified by PCR starting from a testis cDNA library and then cloned into pVL vector for expression in insect cells through the baculovirus system. The GST-FLT3 cytoplasmic domain has been expressed in Sf21 cells infected for 72 hours at 27° C. The recombinant protein has been purified by affinity on GSH-sepharose and eluted with glutathione. A further purification step has been performed on heparine sepharose. […] General Principle-A specific peptidic substrate was trans-phosphorylated by the kinase in the presence of ATP traced with 33Pγ-ATP. At the end of the phosphorylation reaction, the not reacted ATP, cold and radioactive, was captured by an excess of dowex ion exchange resin that eventually settled by gravity to the bottom of the reaction plate. The supernatant was subsequently withdrawn and transferred into a counting plate that was then evaluated by β-counting. • ii. Dowex resin preparation-500 g of wet resin (SIGMA, custom prepared resin DOWEX 1×8 200-400 mesh, 2.5 Kg) were weighed out and diluted to 2 L in 150 mM sodium formate, pH 3.00. The resin was allowed to settle down overnight and then the supernatant was discarded. After three washes as above over a couple of days, the resin was allowed to settle and two volumes (with respect to the resin volume) were added of 150 mM sodium formate buffer. Biochemical Assay for Inhibitors of FLT3 Kinase Activity • i. Enzyme-The assay was performed using FLT3 cytoplasmic domain product and purified in house as GST fused protein. […] NO: 1). The peptide was purchased from American Peptide Company (Sunnyvale, Calif.). Biochemical Assay for Inhibitors of KIT Kinase Activity • i. Enzyme-The assay has been performed using KIT cytoplasmic domain product and purified in house as GST fused protein. […] NO: 2). The peptide was purchased from American Peptide Company (Sunnyvale, Calif.). Compound Testing • i. […] An automated station for serial dilutions (Biomek FX, Beckman) was used for producing 1:3 dilutions in 100% DMSO, from line A1 to A10, and for all the compounds in the column. […] The following dispensation into the plates plus 3 cycles of mixing, done by the robot itself, started the kinase reaction. At this point, the correct concentrations were restored for all the reagents. The robot incubated the plates for 60 minutes at r.t., and then stopped the reaction by pipetting 60 microL of dowex resin suspension into the reaction mix. In order to avoid tip clogging, wide bore tips were used to dispense the resin suspension. Three cycles of mixing were done immediately after the addition of the resin. Another mixing cycle was performed after all the plates were stopped, this time using normal tips: the plates were then allowed to rest for about one hour in order to allow resin sedimentation. […] Data Fitting-Data were analyzed by an internally customized version of the SW package “Assay Explorer” that provided sigmoidal fitting of the ten-dilutions curves for IC50 determination in the secondary assays/hit confirmation routines. Cell-Based Assays for Inhibitors of FLT3 Kinase Activity In vitro Cell Proliferation Assay for Inhibitors of FLT3 Kinase Activity

Test [4] has as its system MOLM-13 cells, bearing a FLT3-ITD mutation. Nature of the test: In vitro cell proliferation assay (CellTiter-Glo), MOLM-13. It counts as cell-based. The following applies: Homo sapiens, MOLM-13, 72 h. As to the method:
as §1, §2, §3

The structures appear in SMILES notation. A value given as a limit tells only on which side of the number the result lay.

In US9408850B2, “Substituted indazole derivatives active as kinase inhibitors” (NERVIANO MEDICAL SCIENCES S.R.L., priority 2011, dated 2016) one finds IC50 data, which are given here for seven compounds.

Sequence of KIT cytoplasmic domain (GST fused protein) (P10721 544-976): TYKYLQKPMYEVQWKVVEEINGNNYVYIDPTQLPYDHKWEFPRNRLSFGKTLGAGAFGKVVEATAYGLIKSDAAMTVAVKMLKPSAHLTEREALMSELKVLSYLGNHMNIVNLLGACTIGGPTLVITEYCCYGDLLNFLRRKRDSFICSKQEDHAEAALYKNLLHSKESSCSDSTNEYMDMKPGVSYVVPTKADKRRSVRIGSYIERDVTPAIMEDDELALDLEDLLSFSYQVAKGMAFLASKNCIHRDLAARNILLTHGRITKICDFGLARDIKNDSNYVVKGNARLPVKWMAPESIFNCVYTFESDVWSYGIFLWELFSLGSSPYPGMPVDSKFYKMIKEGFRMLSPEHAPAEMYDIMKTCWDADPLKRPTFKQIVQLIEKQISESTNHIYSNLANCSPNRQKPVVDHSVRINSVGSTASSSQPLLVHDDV
Sequence of FLT3 cytoplasmic domain (GST fused protein) (P36888 564-993): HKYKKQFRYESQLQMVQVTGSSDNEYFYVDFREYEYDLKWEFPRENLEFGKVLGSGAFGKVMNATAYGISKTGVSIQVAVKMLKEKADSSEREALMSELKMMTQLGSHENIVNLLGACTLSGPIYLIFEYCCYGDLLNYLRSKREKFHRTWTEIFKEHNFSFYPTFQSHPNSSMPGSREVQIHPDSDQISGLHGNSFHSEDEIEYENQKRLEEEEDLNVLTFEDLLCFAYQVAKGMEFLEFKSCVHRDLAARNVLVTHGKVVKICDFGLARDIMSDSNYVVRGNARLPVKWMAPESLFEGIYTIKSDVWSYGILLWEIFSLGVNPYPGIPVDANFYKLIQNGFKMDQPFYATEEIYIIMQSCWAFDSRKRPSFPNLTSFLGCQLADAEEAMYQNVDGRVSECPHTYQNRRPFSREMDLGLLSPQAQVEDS

As a reminder, the IC50 is the midpoint of a concentration-inhibition curve. A high value points to weaker potency. Turning to `O=C(Nc1n[nH]c2cc(OCCOCc3ccccc3)ccc12)c1ccc(N2CCOCC2)cc1` [Cpd. 24, N-[6-(2-Benzyloxy-ethoxy)-1H-indazol-3-yl]-4-morpholin-4-yl-benzamide], the IC50 was 260 nM in test [1], below 50 nM in test [2], 162 nM in test [3] and below 50 nM in test [4].
Turning to `CN(C)Cc1ccc(C(=O)Nc2n[nH]c3cc(OCCOCc4ccccc4)ccc23)cc1` [Cpd. 21, N-[6-(2-Benzyloxy-ethoxy)-1H-indazol-3-yl]-4-dimethylaminomethyl-benzamide], the IC50 is 134 nM in test [1], below 50 nM in test [2] and 104 nM in test [3].
Regarding `O=C(Nc1n[nH]c2cc(OCCOCc3ccccc3)ccc12)c1ccc(NC2CCOCC2)cc1` [Cpd. 26, N-[6-(2-Benzyloxy-ethoxy)-1H-indazol-3-yl]-4-(tetrahydro-pyran-4-ylamino)-benzamide], the 50% inhibitory concentration (IC50) in test [1] was 124 nM; in test [2], below 50 nM; in test [3], 90 nM; in test [4], below 50 nM.
For `CN(c1ccc(C(=O)Nc2n[nH]c3cc(OCCOCc4ccccc4)ccc23)cc1)C1CC[N+](C)([O-])CC1` (stereo not drawn) [Cpd. 41, N-[6-(2-Benzyloxy-ethoxy)-1H-indazol-3-yl]-4-[methyl-(1-methyl-1-oxy-piperidin-4-yl)-amino]-benzamide], the IC50 in test [1] is 180 nM; in test [2], below 50 nM; in test [3], 52 nM; in test [4], below 50 nM.
On to `CN1CCN(c2ccc(C(=O)Nc3n[nH]c4cc(OCCOCc5ccncc5)ccc34)cc2)CC1` [Cpd. 35, 4-(4-Methyl-piperazin-1-yl)-N-{6-[2-(pyridin-4-ylmethoxy)-ethoxy]-1H-indazol-3-yl}-benzamide], for which the concentration for half-maximal inhibition (IC50) was 2370 nM in test [1], below 50 nM in test [2], 1180 nM in test [3] and below 50 nM in test [4].
For `CN1CCN(c2ccc(C(=O)Nc3n[nH]c4cc(OCCOCc5ccccc5F)ccc34)cc2)CC1` [Cpd. 30, N-{6-[2-(2-Fluoro-benzyloxy)-ethoxy]-1H-indazol-3-yl}-4-(4-methyl-piperazin-1-yl)-benzamide], the IC50 is 1400 nM in test [1], below 50 nM in test [2], 166 nM in test [3] and below 50 nM in test [4].
Turning to `O=C(Nc1n[nH]c2cc(OCCOCc3ccccc3)ccc12)c1ccc(N2CCNCC2)cc1` [Cpd. 20, N-[6-(2-Benzyloxy-ethoxy)-1H-indazol-3-yl]-4-piperazin-1-yl-benzamide], the IC50 in test [1] was 52 nM; in test [2], below 50 nM; in test [3], below 50 nM; in test [4] it was below 50 nM.
